Tested on: genes predictive for the anti-inflammatory macrolide effect
Test: Genes statistically predictive of Clari response: differentially expressed with Clari but not the inactive macrolides MAA or Josa (Appendix E)
Type: cell-based
Excerpt: In the case of the above-mentioned (i) related to arachidonic acid biosynthesis, specifically, methods of the embodiment involve assaying whether a test macrolide alters biosynthesis of arachidonic acid, alters the expression or activities of enzymes involved in the biosynthesis or activation of arachidonic acid (e.g., arachidonic acid CoA synthetase, delta-6 desaturase, fatty acid elongase, and delta-5 desaturase, AA-related genes in Tables 2 and 3), or alters the expression of genes identified as predictive for the anti-inflammatory macrolide effect (Appendix E). Assays in which arachidonic acid or gene expression or enzymatic activity is detected can be carried out after contacting a cell with a test macrolide. Any cell line that secretes prostaglandin or produces arachidonic acid can be used. Epithelial and macrophages lines (e.g., A549 or THP-1) are suitable for this purpose; other cell lines can be identified by carrying out assays such as those described in the specific Examples, below. Alternatively, screening assays can be carried out after adding a test macrolide to an in vitro cell system (e.g., a cellular extract or liver microsome preparation) or an in vitro enzyme assay system.

CO[C@@H]1[C@@H](O[C@@H]2O[C@H](C)[C@@H](O[C@H]3C[C@@](C)(O)[C@@H](OC(=O)CC(C)C)[C@H](C)O3)[C@H](N(C)C)[C@H]2O)[C@@H](CC=O)C[C@@H](C)[C@@H](O)/C=C/C=C/C[C@@H](C)OC(=O)C[C@H]1OC(C)=O [josamycin]
group mean, gene SERPING1 (SpotID 46579, MAA and Josa vs. Clari): 1.03
group mean, gene C12orf8 (SpotID 46586, MAA and Josa vs. Clari): 0.98
mean group, FLJ20699 (SpotID 46633, pooled group mean): 1.00
mean group, ARHGAP1 (SpotID 46648, pooled group mean): 1.07
group mean, gene KIAA1172 (SpotID 46679, MAA and Josa vs. Clari): 1.04
mean group, KIAA1172 (SpotID 46679, pooled group mean): 1.04
group mean, gene MKNK2 (SpotID 46825, MAA and Josa vs. Clari): 0.94
mean group, MKNK2 (SpotID 46825, pooled group mean): 0.94
group mean, gene PRKAR1A (SpotID 46838, MAA and Josa vs. Clari): 1.04
group mean, gene ARHGDIA (SpotID 46843, MAA and Josa vs. Clari): 1.08
mean group, ARHGDIA (SpotID 46843, pooled group mean): 1.08
group mean, gene HEXA (SpotID 46882, MAA and Josa vs. Clari): 0.97
group mean, gene CDIPT (SpotID 46896, MAA and Josa vs. Clari): 0.91
mean group, CDIPT (SpotID 46896, pooled group mean): 0.91
mean group, PACE (SpotID 46923, pooled group mean): 1.00
group mean, gene METAP2 (SpotID 46935, MAA and Josa vs. Clari): 1.05
mean group, METAP2 (SpotID 46935, pooled group mean): 1.05
group mean, gene HSPBP1 (SpotID 46979, MAA and Josa vs. Clari): 1.02
mean group, EREG (SpotID 46988, pooled group mean): 1.11
group mean, gene TFPI2 (SpotID 46991, MAA and Josa vs. Clari): 1.00
group mean, gene C2orf3 (SpotID 47034, MAA and Josa vs. Clari): 1.01
mean group, C2orf3 (SpotID 47034, pooled group mean): 1.01
group mean, gene NFRKB (SpotID 47056, MAA and Josa vs. Clari): 0.96
group mean, gene GOLGB1 (SpotID 47111, MAA and Josa vs. Clari): 1.01
group mean, gene MCM2 (SpotID 47123, MAA and Josa vs. Clari): 0.97
group mean, gene KIAA0251 (SpotID 47131, MAA and Josa vs. Clari): 0.92
group mean, gene ARHGAP1 (SpotID 47192, MAA and Josa vs. Clari): 1.10
group mean, gene ITGB5 (SpotID 47212, MAA and Josa vs. Clari): 0.94
mean group, NUBP1 (SpotID 47241, pooled group mean): 1.04
group mean, gene AKR1A1 (SpotID 47249, MAA and Josa vs. Clari): 0.93
group mean, gene HKE4 (SpotID 47251, MAA and Josa vs. Clari): 0.94
mean group, EPOR (SpotID 47314, pooled group mean): 0.99
group mean, gene ADAM11 (SpotID 47352, MAA and Josa vs. Clari): 0.93
mean group, ADAM11 (SpotID 47352, pooled group mean): 0.93
group mean, gene ERF (SpotID 47354, MAA and Josa vs. Clari): 1.15
mean group, P4HB (SpotID 47366, pooled group mean): 1.05
group mean, gene MTHFD1 (SpotID 47406, MAA and Josa vs. Clari): 1.12
mean group, CETN2 (SpotID 47415, pooled group mean): 1.06
group mean, gene SNK (SpotID 47418, MAA and Josa vs. Clari): 1.03
mean group, SNK (SpotID 47418, pooled group mean): 1.03
mean group, GCS1 (SpotID 47432, pooled group mean): 0.90
group mean, gene DCTN1 (SpotID 47439, MAA and Josa vs. Clari): 1.04
mean group, DCTN1 (SpotID 47439, pooled group mean): 1.04
group mean, gene RANBP1 (SpotID 47446, MAA and Josa vs. Clari): 1.04
mean group, RANBP1 (SpotID 47446, pooled group mean): 1.04
mean group, MSH3 (SpotID 47504, pooled group mean): 1.09
mean group, SERPINA1 (SpotID 47522, pooled group mean): 1.04
group mean, gene PTK2B (SpotID 47524, MAA and Josa vs. Clari): 1.34
group mean, gene ARHGDIA (SpotID 47535, MAA and Josa vs. Clari): 1.08
group mean, gene TRAP1 (SpotID 47622, MAA and Josa vs. Clari): 1.09
mean group, TRAP1 (SpotID 47622, pooled group mean): 1.09
group mean, gene HSPA9B (SpotID 47661, MAA and Josa vs. Clari): 1.10
mean group, NR4A2 (SpotID 47679, pooled group mean): 0.95
group mean, gene HSPA9B (SpotID 47694, MAA and Josa vs. Clari): 1.09
mean group, HSPA9B (SpotID 47694, pooled group mean): 1.09
group mean, gene MAD4 (SpotID 47705, MAA and Josa vs. Clari): 0.97
group mean, gene NBS1 (SpotID 47754, MAA and Josa vs. Clari): 1.18
mean group, NBS1 (SpotID 47754, pooled group mean): 1.18
group mean, gene KIAA1922 (SpotID 47755, MAA and Josa vs. Clari): 1.14
group mean, gene POLA (SpotID 47776, MAA and Josa vs. Clari): 1.02
mean group, POLA (SpotID 47776, pooled group mean): 1.02
group mean, gene BET3 (SpotID 47793, MAA and Josa vs. Clari): 0.95
group mean, gene GOT1 (SpotID 47802, MAA and Josa vs. Clari): 1.02
mean group, GOT1 (SpotID 47802, pooled group mean): 1.02
group mean, gene ENTPD6 (SpotID 47811, MAA and Josa vs. Clari): 0.93
mean group, ENTPD6 (SpotID 47811, pooled group mean): 0.93
mean group, SSI-1 (SpotID 47846, pooled group mean): 1.03
group mean, gene PRLR (SpotID 47850, MAA and Josa vs. Clari): 1.09
mean group, PRLR (SpotID 47850, pooled group mean): 1.09
group mean, gene ERF (SpotID 47898, MAA and Josa vs. Clari): 1.14
group mean, gene YWHAE (SpotID 47911, MAA and Josa vs. Clari): 1.04
group mean, gene CCNE2 (SpotID 47926, MAA and Josa vs. Clari): 0.98
group mean, gene P4HA1 (SpotID 47935, MAA and Josa vs. Clari): 0.95
mean group, P4HA1 (SpotID 47935, pooled group mean): 0.95
group mean, gene CTSB (SpotID 47937, MAA and Josa vs. Clari): 0.98
group mean, gene INPP5E (SpotID 47939, MAA and Josa vs. Clari): 0.99
group mean, gene SF3B3 (SpotID 47947, MAA and Josa vs. Clari): 1.10
